From ChEMBL document CHEMBL1201862, “PubChem BioAssay data set” (2004)
The source made the active and inactive calls.

What was measured:
[1] = target: Cytochrome P450 2C9 (Homo sapiens, UniProt P11712)
[2] = target: Cytochrome P450 2D6 (Homo sapiens, UniProt P10635);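 also: CYP2D6 member of a cytochrome P450 panel assay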
[3] = target: Glucose-6-phosphate 1-dehydrogenase (Homo sapiens, UniProt P11413); assay: inhibition of Homo sapiens G6PD, dose series – biochemical, fluorescence, selectivity assay for P. falciparum G6PD inhibitor project, dose response (AID 504792); type: functional
[4] = system: Vero; assay: cells; type: functional, cell-based; conditions: Chlorocebus sabaeus
[5] = system: Vero; assay: cells; type: functional; conditions: Chlorocebus sabaeus
[6] = system: Vero; assay: viability of Vero cells under compound – cytotoxicity control for flavivirus capping enzyme inhibitors (AID 588742); type: functional; conditions: Chlorocebus sabaeus
[7] = Counterscreen for AddAB inhibitors: absorbance-based bacterial cell-based high throughput dose response assay for inhibitors of bacterial viability. [Related pubchem assays (depositor defined):AID435030, AID449728, AID449731, AID488942, AID488955, AID488956]; type: functional
[8] = target: T1, Exodeoxyribonuclease V (Escherichia coli (strain K12), UniProt P04993+P07648+P08394); assay: RecBCD inhibition via phage-restricted bacterial growth – absorbance, V66 E. coli, mutant T4 phage, counter-screen for AddAB inhibitor project, dose response (AID 492957); type: functional, cell-based, Escherichia coli str. K-12 substr. MG1655
T1 sequence (P04993 whole entry): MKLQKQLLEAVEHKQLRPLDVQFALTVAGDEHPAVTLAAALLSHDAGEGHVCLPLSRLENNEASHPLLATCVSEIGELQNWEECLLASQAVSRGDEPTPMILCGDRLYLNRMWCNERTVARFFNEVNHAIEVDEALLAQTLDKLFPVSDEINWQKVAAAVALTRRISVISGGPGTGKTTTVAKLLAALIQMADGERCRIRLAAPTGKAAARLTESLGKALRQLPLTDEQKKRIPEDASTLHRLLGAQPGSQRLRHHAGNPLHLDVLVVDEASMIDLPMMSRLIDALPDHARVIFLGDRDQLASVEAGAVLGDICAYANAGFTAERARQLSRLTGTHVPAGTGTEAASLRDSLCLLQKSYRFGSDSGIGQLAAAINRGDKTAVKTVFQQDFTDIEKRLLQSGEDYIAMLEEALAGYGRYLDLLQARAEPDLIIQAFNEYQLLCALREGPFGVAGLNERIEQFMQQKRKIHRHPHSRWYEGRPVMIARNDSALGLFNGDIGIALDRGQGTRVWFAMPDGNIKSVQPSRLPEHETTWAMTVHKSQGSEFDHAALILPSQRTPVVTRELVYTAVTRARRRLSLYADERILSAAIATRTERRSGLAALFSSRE
T1 sequence (P07648 whole entry): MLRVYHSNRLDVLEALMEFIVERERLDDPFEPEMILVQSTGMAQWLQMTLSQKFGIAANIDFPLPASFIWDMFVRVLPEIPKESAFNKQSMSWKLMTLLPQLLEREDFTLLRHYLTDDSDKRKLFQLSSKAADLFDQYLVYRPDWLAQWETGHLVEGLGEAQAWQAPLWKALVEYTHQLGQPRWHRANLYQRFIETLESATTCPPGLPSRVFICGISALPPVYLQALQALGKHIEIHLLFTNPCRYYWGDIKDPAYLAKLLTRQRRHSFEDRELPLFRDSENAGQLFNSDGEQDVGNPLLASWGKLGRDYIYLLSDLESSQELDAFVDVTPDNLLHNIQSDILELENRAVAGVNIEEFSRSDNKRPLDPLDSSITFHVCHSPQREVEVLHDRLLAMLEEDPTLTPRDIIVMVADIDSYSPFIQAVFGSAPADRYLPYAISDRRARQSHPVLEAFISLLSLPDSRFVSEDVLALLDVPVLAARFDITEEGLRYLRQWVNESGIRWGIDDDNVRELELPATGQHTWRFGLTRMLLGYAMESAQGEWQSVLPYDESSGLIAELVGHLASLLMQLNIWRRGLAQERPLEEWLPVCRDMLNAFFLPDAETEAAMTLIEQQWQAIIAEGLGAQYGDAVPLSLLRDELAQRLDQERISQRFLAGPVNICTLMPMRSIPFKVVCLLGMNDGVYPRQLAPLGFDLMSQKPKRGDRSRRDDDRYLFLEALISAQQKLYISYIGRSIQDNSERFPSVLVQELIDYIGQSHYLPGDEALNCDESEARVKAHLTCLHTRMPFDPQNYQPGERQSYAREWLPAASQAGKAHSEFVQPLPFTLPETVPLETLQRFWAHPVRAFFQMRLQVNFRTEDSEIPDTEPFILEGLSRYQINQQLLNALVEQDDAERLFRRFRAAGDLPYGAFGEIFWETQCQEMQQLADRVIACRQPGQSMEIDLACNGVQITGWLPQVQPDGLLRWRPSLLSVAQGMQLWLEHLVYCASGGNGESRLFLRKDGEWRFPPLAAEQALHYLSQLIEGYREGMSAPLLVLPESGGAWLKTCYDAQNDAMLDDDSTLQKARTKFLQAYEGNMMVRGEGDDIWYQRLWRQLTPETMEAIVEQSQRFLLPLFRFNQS
T1 sequence (P08394 whole entry): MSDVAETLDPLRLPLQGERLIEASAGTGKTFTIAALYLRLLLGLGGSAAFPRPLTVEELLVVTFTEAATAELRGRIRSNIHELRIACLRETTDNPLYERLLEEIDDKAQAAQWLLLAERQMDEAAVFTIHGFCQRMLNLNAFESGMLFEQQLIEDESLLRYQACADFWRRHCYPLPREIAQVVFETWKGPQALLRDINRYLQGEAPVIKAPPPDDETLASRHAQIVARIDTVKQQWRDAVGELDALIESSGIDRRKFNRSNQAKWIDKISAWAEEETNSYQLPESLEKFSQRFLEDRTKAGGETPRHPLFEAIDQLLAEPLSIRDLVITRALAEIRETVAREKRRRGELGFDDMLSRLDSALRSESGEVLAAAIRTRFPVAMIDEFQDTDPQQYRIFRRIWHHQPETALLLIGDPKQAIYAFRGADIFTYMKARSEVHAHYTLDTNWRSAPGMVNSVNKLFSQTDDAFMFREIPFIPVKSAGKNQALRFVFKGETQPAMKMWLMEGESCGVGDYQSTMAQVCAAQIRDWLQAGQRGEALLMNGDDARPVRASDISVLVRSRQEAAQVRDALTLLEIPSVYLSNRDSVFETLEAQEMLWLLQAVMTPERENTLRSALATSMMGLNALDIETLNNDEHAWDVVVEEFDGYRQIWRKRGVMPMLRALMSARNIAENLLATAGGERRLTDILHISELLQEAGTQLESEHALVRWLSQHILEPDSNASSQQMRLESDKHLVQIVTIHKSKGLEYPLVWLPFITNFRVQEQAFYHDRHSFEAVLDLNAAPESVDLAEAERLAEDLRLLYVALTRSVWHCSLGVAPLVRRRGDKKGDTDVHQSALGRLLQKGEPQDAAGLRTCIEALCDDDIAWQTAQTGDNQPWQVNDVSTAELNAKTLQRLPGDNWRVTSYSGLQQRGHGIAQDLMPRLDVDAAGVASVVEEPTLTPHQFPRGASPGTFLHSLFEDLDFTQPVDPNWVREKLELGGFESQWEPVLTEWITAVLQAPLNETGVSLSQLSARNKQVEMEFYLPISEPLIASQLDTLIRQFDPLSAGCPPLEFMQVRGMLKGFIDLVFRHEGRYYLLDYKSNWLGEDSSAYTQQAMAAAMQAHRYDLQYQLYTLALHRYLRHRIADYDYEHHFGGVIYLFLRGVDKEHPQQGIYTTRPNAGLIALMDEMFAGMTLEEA

[9] = target: Beta-galactosidase (Escherichia coli, UniProt Q8VNN2); type: functional
[10] = target: T2, Kappa-type opioid receptor (Homo sapiens, UniProt P41145); type: functional
[11] = target: T3, Heat shock factor protein 1 (Mus musculus, UniProt P38532); assay: decrease of HSF1-responsive luciferase luminescence – cell-based, NIH3T3, dose retest, confirmation (AID 2382); type: functional;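 also: NIH3T3 fibroblasts with HSF1-driven luciferase reporter stressed by proteasome inhibitor MG132; luminescence from HSF1-driven luciferase expression after 8 hours of MG132 stress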
T3 sequence (P38532 whole entry): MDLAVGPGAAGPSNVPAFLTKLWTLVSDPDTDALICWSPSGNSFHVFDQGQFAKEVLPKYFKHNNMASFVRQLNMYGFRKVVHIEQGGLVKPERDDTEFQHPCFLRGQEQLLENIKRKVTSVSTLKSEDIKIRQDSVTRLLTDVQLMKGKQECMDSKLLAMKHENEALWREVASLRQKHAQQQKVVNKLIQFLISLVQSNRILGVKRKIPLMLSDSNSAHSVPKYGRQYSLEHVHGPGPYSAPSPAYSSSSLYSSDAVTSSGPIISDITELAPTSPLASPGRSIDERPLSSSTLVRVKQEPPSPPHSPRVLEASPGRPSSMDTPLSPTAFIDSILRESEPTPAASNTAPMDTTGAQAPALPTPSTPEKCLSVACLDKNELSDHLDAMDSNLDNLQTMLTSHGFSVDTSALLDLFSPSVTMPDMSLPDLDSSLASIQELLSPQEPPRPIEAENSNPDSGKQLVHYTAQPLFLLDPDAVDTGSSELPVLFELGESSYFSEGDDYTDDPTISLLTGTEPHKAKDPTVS

[12] = target: Nonstructural protein 1 (Influenza A virus, UniProt Q194T2); type: functional, Influenza A virus (A/California/07/2009(H1N1))
[13] = target: T2, Kappa-type opioid receptor; type: functional; remark: listed apart in the source
[14] = cells
[15] = viability of uninfected HEp-2 cells – cell-based, HTS, cytotoxicity control for RSV inhibitor project, dose response (AID 2410); type: functional; conditions: human respiratory syncytial virus
[16] = target: T4, Insulin-degrading enzyme (Homo sapiens, UniProt P14735); assay: cellular IDE activation of Abeta substrate cleavage – fluorescence polarization, HEK cells, dose response (AID 588439); type: functional, cell-based
T4 sequence (P14735 whole entry): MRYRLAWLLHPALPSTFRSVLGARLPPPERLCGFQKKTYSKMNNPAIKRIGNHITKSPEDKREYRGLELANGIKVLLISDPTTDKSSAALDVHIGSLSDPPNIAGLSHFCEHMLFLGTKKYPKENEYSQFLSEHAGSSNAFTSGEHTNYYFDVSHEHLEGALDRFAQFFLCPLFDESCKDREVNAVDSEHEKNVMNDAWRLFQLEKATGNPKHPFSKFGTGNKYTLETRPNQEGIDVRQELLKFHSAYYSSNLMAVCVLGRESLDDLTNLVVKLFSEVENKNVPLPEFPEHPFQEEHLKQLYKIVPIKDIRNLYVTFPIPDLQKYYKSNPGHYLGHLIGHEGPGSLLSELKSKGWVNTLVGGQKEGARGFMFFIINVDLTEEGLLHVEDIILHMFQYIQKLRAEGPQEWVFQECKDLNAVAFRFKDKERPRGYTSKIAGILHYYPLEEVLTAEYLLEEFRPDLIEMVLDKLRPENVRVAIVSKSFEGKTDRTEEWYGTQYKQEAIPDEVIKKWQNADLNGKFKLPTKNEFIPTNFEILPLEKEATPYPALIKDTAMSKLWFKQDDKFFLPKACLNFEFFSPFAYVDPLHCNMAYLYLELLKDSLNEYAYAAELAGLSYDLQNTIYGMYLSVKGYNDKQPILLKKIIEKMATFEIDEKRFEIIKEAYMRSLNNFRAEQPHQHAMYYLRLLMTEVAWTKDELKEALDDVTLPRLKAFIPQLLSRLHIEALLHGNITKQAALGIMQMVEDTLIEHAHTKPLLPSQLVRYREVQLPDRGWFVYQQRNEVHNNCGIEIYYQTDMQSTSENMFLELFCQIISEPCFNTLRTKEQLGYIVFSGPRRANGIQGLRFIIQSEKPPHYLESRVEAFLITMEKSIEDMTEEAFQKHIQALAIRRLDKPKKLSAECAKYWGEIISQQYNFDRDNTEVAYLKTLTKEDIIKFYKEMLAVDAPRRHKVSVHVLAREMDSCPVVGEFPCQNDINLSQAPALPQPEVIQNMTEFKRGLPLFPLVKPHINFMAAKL

[17] = system: HEK293; assay: membrane integrity loss in HEK cells – cell-based, fluorescence, cytotoxicity control for IDE activator project, dose response (AID 588440); type: functional, Homo sapiens; conditions: Homo sapiens, HEK293;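 also: cytotoxicity by LDH release measuring loss of membrane integrity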
[18] = target: T4, Insulin-degrading enzyme; assay: recombinant IDE activation, cell-free – biochemical, fluorescence polarization, counter-screen for IDE activator project, dose response (AID 588681)
[19] = system: HEK293; assay: optical interference in Abeta FP readout, dose response, artefact control for IDE activator project, biochemical, fluorescence polarization (AID 588442); type: functional, cell-based; conditions: Homo sapiens

Chain of Cytochrome P450 2C9 (P11712 whole entry): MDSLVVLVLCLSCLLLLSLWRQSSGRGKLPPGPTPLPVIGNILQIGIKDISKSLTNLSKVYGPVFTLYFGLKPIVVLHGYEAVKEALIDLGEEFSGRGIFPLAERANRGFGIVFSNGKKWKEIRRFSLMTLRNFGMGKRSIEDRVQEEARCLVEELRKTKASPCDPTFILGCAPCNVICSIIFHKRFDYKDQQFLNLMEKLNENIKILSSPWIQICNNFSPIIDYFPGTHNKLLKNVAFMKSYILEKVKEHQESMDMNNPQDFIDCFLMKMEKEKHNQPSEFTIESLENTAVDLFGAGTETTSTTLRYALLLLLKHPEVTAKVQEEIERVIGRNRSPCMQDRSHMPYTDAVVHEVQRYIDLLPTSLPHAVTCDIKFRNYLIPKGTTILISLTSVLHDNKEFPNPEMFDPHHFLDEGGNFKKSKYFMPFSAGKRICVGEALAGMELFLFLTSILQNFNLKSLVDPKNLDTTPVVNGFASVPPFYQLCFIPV
T2 sequence (P41145 whole entry): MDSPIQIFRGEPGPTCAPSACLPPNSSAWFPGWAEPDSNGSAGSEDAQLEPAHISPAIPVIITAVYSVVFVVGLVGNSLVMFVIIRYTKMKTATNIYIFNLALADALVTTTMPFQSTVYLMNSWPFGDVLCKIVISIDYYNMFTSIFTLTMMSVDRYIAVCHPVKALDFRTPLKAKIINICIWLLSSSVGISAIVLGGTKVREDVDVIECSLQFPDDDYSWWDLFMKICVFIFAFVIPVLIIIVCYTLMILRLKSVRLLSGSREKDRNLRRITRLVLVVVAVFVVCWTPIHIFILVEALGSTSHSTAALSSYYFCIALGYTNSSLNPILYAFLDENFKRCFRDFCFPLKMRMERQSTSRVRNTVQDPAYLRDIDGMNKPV
Chain of Cytochrome P450 2D6 (P10635 whole entry): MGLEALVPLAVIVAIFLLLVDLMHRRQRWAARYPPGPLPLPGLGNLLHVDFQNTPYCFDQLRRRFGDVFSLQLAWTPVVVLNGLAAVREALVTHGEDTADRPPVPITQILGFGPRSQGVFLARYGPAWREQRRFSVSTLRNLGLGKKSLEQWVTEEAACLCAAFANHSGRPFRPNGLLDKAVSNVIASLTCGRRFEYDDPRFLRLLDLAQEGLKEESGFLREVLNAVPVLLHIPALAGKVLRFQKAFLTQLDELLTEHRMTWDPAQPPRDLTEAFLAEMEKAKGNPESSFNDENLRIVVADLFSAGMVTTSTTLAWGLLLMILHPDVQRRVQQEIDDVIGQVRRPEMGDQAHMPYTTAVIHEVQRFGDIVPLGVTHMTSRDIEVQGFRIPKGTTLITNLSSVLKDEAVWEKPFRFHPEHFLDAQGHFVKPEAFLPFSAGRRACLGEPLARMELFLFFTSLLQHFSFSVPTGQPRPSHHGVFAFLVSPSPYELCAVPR
Chain of Glucose-6-phosphate 1-dehydrogenase (P11413 whole entry): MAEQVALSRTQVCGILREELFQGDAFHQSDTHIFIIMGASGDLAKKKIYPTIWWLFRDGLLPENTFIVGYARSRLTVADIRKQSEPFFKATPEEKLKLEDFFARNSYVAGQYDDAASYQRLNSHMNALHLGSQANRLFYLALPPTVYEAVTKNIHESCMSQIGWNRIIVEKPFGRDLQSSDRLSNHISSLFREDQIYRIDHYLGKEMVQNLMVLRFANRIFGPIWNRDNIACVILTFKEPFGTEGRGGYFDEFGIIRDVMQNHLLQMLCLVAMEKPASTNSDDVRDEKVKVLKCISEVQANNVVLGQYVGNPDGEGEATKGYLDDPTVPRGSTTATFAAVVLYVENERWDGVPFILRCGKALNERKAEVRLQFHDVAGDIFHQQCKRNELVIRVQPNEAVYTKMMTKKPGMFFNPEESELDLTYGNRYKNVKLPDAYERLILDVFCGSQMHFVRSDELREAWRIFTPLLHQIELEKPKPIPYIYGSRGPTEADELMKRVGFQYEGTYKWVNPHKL
Chain of Beta-galactosidase (Q8VNN2 whole entry): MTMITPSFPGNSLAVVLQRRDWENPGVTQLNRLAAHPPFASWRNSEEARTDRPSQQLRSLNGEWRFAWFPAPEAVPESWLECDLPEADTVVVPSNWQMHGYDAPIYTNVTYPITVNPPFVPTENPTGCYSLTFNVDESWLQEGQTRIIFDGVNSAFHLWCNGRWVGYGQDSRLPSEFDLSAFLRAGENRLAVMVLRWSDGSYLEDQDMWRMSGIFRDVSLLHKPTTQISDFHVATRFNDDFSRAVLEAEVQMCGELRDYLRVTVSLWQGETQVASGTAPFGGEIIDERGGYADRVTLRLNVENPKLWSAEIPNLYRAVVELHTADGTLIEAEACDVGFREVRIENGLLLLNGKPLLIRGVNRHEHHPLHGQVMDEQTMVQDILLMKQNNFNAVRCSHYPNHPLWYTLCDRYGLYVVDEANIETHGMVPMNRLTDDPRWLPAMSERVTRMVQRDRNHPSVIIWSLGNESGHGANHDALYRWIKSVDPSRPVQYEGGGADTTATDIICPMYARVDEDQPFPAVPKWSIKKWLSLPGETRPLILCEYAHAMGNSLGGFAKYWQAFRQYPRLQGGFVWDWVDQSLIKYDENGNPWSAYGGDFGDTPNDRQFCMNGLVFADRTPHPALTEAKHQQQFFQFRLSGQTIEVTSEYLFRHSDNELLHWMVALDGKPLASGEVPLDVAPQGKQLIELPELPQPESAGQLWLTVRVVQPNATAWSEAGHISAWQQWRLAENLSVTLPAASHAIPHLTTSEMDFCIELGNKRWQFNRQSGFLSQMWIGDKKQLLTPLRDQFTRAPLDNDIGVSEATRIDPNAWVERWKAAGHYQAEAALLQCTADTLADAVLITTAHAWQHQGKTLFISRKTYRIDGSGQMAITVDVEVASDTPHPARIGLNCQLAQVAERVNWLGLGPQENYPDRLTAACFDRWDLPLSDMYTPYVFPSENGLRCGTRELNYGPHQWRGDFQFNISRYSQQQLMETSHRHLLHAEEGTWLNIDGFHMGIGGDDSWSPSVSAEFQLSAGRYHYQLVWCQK
Chain of Nonstructural protein 1 (Q194T2 whole entry): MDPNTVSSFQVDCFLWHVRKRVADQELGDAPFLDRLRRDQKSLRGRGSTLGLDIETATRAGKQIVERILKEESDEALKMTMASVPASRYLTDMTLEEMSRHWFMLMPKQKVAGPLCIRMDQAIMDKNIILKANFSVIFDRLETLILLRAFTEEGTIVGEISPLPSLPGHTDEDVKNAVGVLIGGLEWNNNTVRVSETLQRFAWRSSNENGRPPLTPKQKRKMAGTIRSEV

CCN1C(=O)/C(=C2\SC(N3CCCCC3)=NC2=O)c2ccccc21
AC50 [1]: inconclusive
AC50 [2]: 3.16 µM (inconclusive)

CC(=O)Nc1cc([N+](=O)[O-])ccc1OCc1ccccc1
IC50 [3]: > 80 µM (inactive)

CSc1nc(Cl)cc(N(CCO)CCO)n1
AC50 [1]: inconclusive

CN(Cc1nnc(S)n1C)S(=O)(=O)c1ccccc1
AC50 [1]: inconclusive

O=C1Nc2ccccc2C2=NC(CN3CCN(c4cccc(Cl)c4)CC3)CN12 (stereo not given)
AC50 [1]: inconclusive

CN=c1ccc(Br)cc(C(=O)/C=C/c2cccc(Cl)c2Cl)c1O
IC50 [4]: > 25 µM (active)
CC50 [5]: 9.23 µM (active)
CC50 [6]: 18 µM (active)

O=C(O)CC1SC(N/N=C/c2ccccn2)=NC1=O (stereo not given)
IC50 [7]: > 118 µM (inactive)
IC50 [8]: > 118 µM (inactive)

O=C(CSC1=NNC(c2ccccn2)S1)Nc1ccccc1 (stereo not given)
IC50 [7]: > 118 µM (inactive)
EC50 [9]: > 31.5 µM (inactive)
IC50 [10]: > 32 µM
EC50 [11]: 3.04 µM (active)
IC50 [12]: 0.986 µM (active)
IC50 [13]: > 31.5 µM (inactive)
IC50 [8]: > 118 µM (inactive)

O=C(O)c1cc(-c2ccc3ccccc3c2)nc2ccc(F)cc12
IC50 [14]: 19.2 µM (active)
IC50 [4]: > 25 µM (active)
CC50 [15]: 12.1 µM (active)

CCn1c(=O)c([N+](=O)[O-])c(NCc2ccc3c(c2)OCO3)c2ccccc21
EC50 [16]: > 54.7 µM (inactive)
IC50 [17]: > 89.2 µM (inactive)
EC50 [18]: > 54.7 µM (inactive)
EC50 [19]: > 55.9 µM (inactive)
